Results as given in PubChem BioAssay (NCI).
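In this assay, cells in 96-well plates receive the compound at five concentrations for 48 hours. Endpoints are linearly interpolated between the surrounding concentrations. TGI denotes the concentration required for complete inhibition of growth.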

Tests used:
Experiment in all cases: DTP human tumour cell line panel, 48 h
UO-31 renal = tested on: UO-31 renal
OVCAR-3 ovarian = tested on: OVCAR-3 ovarian
NCI/ADR-RES ovarian = tested on: NCI/ADR-RES ovarian
SK-MEL-2 melanoma = tested on: SK-MEL-2 melanoma
ACHN renal = tested on: ACHN renal
A549 NSCLC = tested on: A549 NSCLC
RPMI-8226 leukemia = tested on: RPMI-8226 leukemia
SK-MEL-5 melanoma = tested on: SK-MEL-5 melanoma
SF-539 CNS = tested on: SF-539 CNS
HS 578T breast = tested on: HS 578T breast

In the case of `O=C(N/N=C\c1cccc2ccccc12)Nc1ccc([N+](=O)[O-])cc1`, the TGI (UO-31 renal) is reported as > 61.8 µM, the TGI (OVCAR-3 ovarian) is reported as 38.3 µM and the TGI (NCI/ADR-RES ovarian) is reported as > 71.4 µM. For the same molecule, the TGI (SK-MEL-2 melanoma) was > 68.7 µM, the TGI (ACHN renal) was > 72.7 µM and the TGI (A549 NSCLC) was > 100 µM. The TGI (RPMI-8226 leukemia) was > 100 µM, the TGI (SK-MEL-5 melanoma) was > 87.2 µM and the TGI (SF-539 CNS) was > 100 µM. For the same molecule, the TGI (HS 578T breast) was > 100 µM.

With `Cc1cc(C)c(S(=O)(=O)N(CCCCN)OCCCN)c(C)c1` the TGI (UO-31 renal) was 31.8 µM, the TGI (OVCAR-3 ovarian) was 36.3 µM and the TGI (NCI/ADR-RES ovarian) was 36.5 µM. The TGI (SK-MEL-2 melanoma) was 30.9 µM, the TGI (ACHN renal) was 37 µM and the TGI (A549 NSCLC) was 36.1 µM. For the same molecule, the TGI (RPMI-8226 leukemia) was 26 µM, the TGI (SK-MEL-5 melanoma) was 39.9 µM and the TGI (SF-539 CNS) was 41.6 µM. It also gave a TGI (HS 578T breast) of 34.4 µM.

For `CN(C(=O)C1(C(=O)C=[N+]=[N-])CC1)c1ccccc1`, the TGI (UO-31 renal) was > 100 µM, the TGI (OVCAR-3 ovarian) was > 100 µM and the TGI (NCI/ADR-RES ovarian) was > 100 µM. For the same molecule, the TGI (SK-MEL-2 melanoma) was > 100 µM, the TGI (ACHN renal) was > 100 µM and the TGI (A549 NSCLC) was > 100 µM. The TGI (RPMI-8226 leukemia) was > 100 µM, the TGI (SK-MEL-5 melanoma) was > 100 µM and the TGI (SF-539 CNS) was > 100 µM. For the same molecule, the TGI (HS 578T breast) was > 100 µM.

`O=C1NC(=S)N/C1=C/c1ccccc1O` was tested, and the TGI (UO-31 renal) was > 100 µM, the TGI (OVCAR-3 ovarian) was > 100 µM and the TGI (NCI/ADR-RES ovarian) was > 100 µM. The TGI (SK-MEL-2 melanoma) was > 100 µM, the TGI (ACHN renal) was > 100 µM and the TGI (A549 NSCLC) was > 100 µM. The TGI (RPMI-8226 leukemia) was > 100 µM, the TGI (SK-MEL-5 melanoma) was > 100 µM and the TGI (SF-539 CNS) was > 100 µM. The TGI (HS 578T breast) was > 100 µM.

In the case of `O=C(O)/C=C(/CC(=O)O)C(=O)O`, the TGI (UO-31 renal) is reported as 33.7 µM, the TGI (OVCAR-3 ovarian) is reported as 34.5 µM and the TGI (NCI/ADR-RES ovarian) is reported as 46.1 µM. It also gave a TGI (SK-MEL-2 melanoma) of 41.9 µM, a TGI (ACHN renal) of 33.3 µM and a TGI (A549 NSCLC) of 43.2 µM. It also gave a TGI (RPMI-8226 leukemia) of 37 µM, a TGI (SK-MEL-5 melanoma) of 44.1 µM and a TGI (SF-539 CNS) of 26 µM. It also gave a TGI (HS 578T breast) of 40.7 µM.

In the case of `C#CCNC(Cc1cnc[nH]1)C(=O)O` (stereo not given), the TGI (UO-31 renal) is reported as > 100 µM, the TGI (OVCAR-3 ovarian) is reported as > 100 µM and the TGI (NCI/ADR-RES ovarian) is reported as > 100 µM. The TGI (SK-MEL-2 melanoma) was > 100 µM, the TGI (ACHN renal) was > 100 µM and the TGI (A549 NSCLC) was > 100 µM. For the same molecule, the TGI (RPMI-8226 leukemia) was > 100 µM, the TGI (SK-MEL-5 melanoma) was > 100 µM and the TGI (SF-539 CNS) was > 100 µM. The TGI (HS 578T breast) was > 100 µM.

`CCCn1c(C23CC4CC(CC(C4)C2)C3)nc2ccc(Cl)cc2c1=O` was tested, and the TGI (UO-31 renal) was 39.5 µM, the TGI (OVCAR-3 ovarian) was > 100 µM and the TGI (NCI/ADR-RES ovarian) was > 100 µM. For the same molecule, the TGI (SK-MEL-2 melanoma) was > 100 µM, the TGI (ACHN renal) was 47.9 µM and the TGI (A549 NSCLC) was > 100 µM. The TGI (RPMI-8226 leukemia) was > 100 µM, the TGI (SK-MEL-5 melanoma) was > 100 µM and the TGI (SF-539 CNS) was > 100 µM. For the same molecule, the TGI (HS 578T breast) was > 100 µM.
